Experimental data reported in patent publication US7906533B2, “Nicotinamide pyridinureas as vascular endothelial growth factor (VEGF) receptor kinase inhibitors” (Bayer Schering Pharma AG, priority 2004, dated 2011).

Experiments:
[1] = target: T1, human Cytochrome P 450 isoenzyme 2C19 (Homo sapiens, UniProt P33261); assay: Cytochrome P450 Inhibition (2C19); format: in vitro ADME; conditions: baculovirus/insect cell-expressed human isoenzyme; read-out: IC50 CYP 2C19
T1 construct: host or cells: baculovirus/insect cells
Experimental: (§1) The Cytochrome P450 isoenzyme inhibition was performed according to the publication of Crespi et al. (Anal. Biochem., 1997, 248, 188-190) with use of the baculovirus/insect cell-expressed, human Cytochrome P 450 isoenzymes (2C9 and 2C19).

[2] = target: T2, KDR-Kinase (VEGFR-2) (Homo sapiens, UniProt P35968); assay: KDR Kinase Inhibition; format: biochemical; conditions: GST-kinase domain fusion construct of the KDR kinase; poly(Glu4Tyr) substrate, 32P-γATP
T2 construct: GST-kinase domain fusion construct of the KDR kinase; GST
Experimental: Kinase activity was measured with a GST-kinase domain fusion construct of the KDR kinase according to the following protocol to obtain concentration response curves. Components were added into a microtiterplate in the following sequence: 10 μl of inhibitor in threefold final concentration [3% DMSO in buffer (40 mM Tris Cl pH 7.5; 1 mM DTT, 1 mM MnCl2, 10 mM MgCl2, 2.5 Promille Polyethyleneglycol 20000)] and 10 μl of substrate mixture [24 μM ATP, 24 μg/ml poly(Glu4Tyr) in buffer, specific activity approx. 500 cpm/pmol ^32P-γATP]. Reaction was started by adding 10 μl of enzyme preparation diluted appropriately in buffer that contains 10 μM vanadate. After incubation for exactly 10 min the reaction was stopped by adding of 10 μl stop solution (250 mM EDTA). 10 μl of the reaction mixture were transferred to phosphocellulose filters. The filters were washed in 0.1% phosphoric acid, dried before meltilex scintillator was applied (Wallac, Perkin-Elmer) and the radioactivity was counted.

[3] = target: T3, human Cytochrome P 450 isoenzyme 2C9 (Homo sapiens, UniProt P11712); assay: Cytochrome P450 Inhibition (2C9); format: in vitro ADME; conditions: baculovirus/insect cell-expressed human isoenzyme; read-out: IC50 CYP 2C9
T3 construct: host or cells: baculovirus/insect cells
Experimental: as §1

T3 sequence (P11712 whole entry): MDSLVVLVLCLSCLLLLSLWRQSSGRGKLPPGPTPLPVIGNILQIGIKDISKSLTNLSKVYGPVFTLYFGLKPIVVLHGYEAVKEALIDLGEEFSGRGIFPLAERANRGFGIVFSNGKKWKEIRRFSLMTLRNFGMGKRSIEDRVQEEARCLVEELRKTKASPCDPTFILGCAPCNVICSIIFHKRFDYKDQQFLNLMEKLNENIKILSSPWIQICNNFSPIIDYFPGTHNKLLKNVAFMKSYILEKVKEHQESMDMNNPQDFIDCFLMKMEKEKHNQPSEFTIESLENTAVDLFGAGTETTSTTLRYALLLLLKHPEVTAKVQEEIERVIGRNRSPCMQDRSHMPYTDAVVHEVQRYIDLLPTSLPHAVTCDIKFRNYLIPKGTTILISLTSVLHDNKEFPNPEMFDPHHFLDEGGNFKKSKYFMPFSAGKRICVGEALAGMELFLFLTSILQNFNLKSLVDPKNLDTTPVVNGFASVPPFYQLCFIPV
T1 sequence (P33261 whole entry): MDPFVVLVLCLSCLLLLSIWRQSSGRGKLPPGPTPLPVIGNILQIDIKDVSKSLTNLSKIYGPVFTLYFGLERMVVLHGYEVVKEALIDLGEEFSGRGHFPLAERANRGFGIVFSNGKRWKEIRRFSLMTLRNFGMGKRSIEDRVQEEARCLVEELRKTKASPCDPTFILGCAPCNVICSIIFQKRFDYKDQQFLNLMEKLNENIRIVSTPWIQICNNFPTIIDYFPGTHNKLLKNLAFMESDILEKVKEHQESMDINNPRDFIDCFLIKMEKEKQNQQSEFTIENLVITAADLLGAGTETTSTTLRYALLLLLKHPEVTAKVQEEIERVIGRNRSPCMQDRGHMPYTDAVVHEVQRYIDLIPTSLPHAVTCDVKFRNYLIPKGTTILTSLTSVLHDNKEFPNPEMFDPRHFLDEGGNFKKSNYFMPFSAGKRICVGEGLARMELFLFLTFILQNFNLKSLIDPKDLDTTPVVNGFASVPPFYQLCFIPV
T2 sequence (P35968 834-1162 limits assumed, species assumed): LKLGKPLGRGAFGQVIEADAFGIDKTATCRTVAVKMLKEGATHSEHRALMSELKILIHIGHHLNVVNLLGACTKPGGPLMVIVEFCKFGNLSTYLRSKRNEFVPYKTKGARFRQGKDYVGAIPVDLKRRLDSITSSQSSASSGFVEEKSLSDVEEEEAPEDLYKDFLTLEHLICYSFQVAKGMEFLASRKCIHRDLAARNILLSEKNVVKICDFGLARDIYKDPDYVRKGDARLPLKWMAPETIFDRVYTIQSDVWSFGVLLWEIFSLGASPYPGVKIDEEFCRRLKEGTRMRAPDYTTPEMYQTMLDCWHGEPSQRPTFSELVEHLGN

Compound | melting point | IC50 [1] | IC50 [2] | IC50 [3]
CNC(=O)Nc1cc(CNc2ncccc2C(=O)Nc2cc3ccccc3cn2)ccn1 [Example 1.3, N-isoquinolin-3-yl-2-{[2-(3-methyl-ureido)-pyridin-4-ylmethyl]-amino}-nicotinamide] | 191 to 192 °C | – | – | –
CNC(=O)Nc1cc(CNc2ncccc2C(=O)Nc2ccc3c(cnn3C)c2)ccn1 [Example 1.4, N-(1-methyl-1H-indazol-5-yl)-2-{[2-(3-methyl-ureido)-pyridin-4-ylmethyl]-amino}-nicotinamide] | 219 to 220 °C | – | – | –
CNC(=O)Nc1cc(CNc2ncccc2C(=O)Nc2cccc(C(F)(F)F)c2)ccn1 [Example 1.1, 2-{[2-(3-methyl-ureido)-pyridin-4-ylmethyl]-amino}-N-(3-trifluoromethyl-phenyl)-nicotinamide] | 206 to 207 °C | – | – | –
Cn1cc2ccc(NC(=O)c3cccnc3NCc3ccnc(NC(=O)N4CCOCC4)c3)cc2n1 [Example 2.0, morpholine-4-carboxylic acid (4-{[3-(2-methyl-2H-indazol-6-ylcarbamoyl)-pyridin-2-ylamino]-methyl}-pyridin-2-yl)-amide] | – | > 30 µM | 0.029 µM | > 30 µM

Continued, values first:

melting point | IC50 [1] | IC50 [2] | IC50 [3] | Compound
228 to 229 °C | – | – | – | CNC(=O)Nc1cc(CNc2ncccc2C(=O)Nc2ccc3cnn(C)c3c2)ccn1 [Example 1.2, N-(1-methyl-1H-indazol-6-yl)-2-{[2-(3-methyl-ureido)-pyridin-4-ylmethyl]-amino}-nicotinamide]
205 to 207 °C | > 30 µM | 0.01 µM | 11.7 µM | CNC(=O)Nc1cc(CNc2ncccc2C(=O)Nc2ccc3cn(C)nc3c2)ccn1 [Example 1.0, N-(2-methyl-2H-indazol-6-yl)-2-{[2-(3-methyl-ureido)-pyridin-4-ylmethyl]-amino}-nicotinamide]
